In patent publication US20240366567A1, “PHARMACEUTICAL COMBINATIONS COMPRISING A KRAS G12C INHIBITOR AND USES THEREOF FOR THE TREATMENT OF CANCERS” (NOVARTIS AG, priority 2021, published 2024):

How the values were obtained:
[1] = system: patients; experiment: KontRASt-01 (NCT04699188) phase Ib, safety and tolerability; type: in vivo, human
Description: The study is conducted to evaluate the antitumor efficacy, safety and tolerability of JDQ443 as a single agent and JDQ443 in combination with other agents.

[2] = system: human KRAS G12C-mutated NSCLC PDX models; experiment: NSCLC patient-derived xenograft (PDX) panel; type: in vivo, nude mice; conditions: Compound A alone, 100 mg/kg QD oral
Description: The antitumor efficacy of JDQ443±inhibitors of RAS-upstream or RAS-downstream signaling was evaluated in PDX panels of human KRAS G12C-mutated NSCLC and CRC.
Patient-derived xenograft (PDX) models of human NSCLC and CRC were established by direct implantation of patient NSCLC or CRC tumor tissue subcutaneously into nude mice. PDX models were maintained through in vivo serial passaging.
A cohort of mice was implanted subcutaneously with tumor fragments from each PDX model (typically passages 4-9). Ten NSCLC and nine CRC PDX models were used. Each model is named with a code, e.g. 30580-HX, 30581-HX etc, for identification and tracking purposes. Individual mice were assigned to treatment groups or control groups for dosing once their tumor volume reached 200-250 mm^3 (T=0, on the x-axis of the spider plots). One animal per PDX model was assigned to each treatment arm. Once enrolled into treatment arms, tumor volumes were measured twice weekly by caliper, and tumor volume was estimated in […] using the formula: Length×Width^2/2. The end of study per model was defined as minimum of 28 days treatment, or duration for untreated tumor to reach 1500 mm^3, or duration for 2 doublings of untreated tumor, whichever was slower.
The Raf inhibitor (LXH254 (naporafenib)) was formulated as a suspension. […]

[3] = system: Ba/F3 cells expressing GFP-tagged KRASG12C R68S; experiment: Ba/F3 viability, CellTiter-Glo, 72 hours (Example 3); type: cell-based, murine

C=CC(=O)N1CC2(CC(n3nc(-c4ccc5c(cnn5C)c4)c(-c4c(Cl)c(C)cc5[nH]ncc45)c3C)C2)C1 (single isomer, unassigned) [Compound A, 1-{6-[(4M)-4-(5-Chloro-6-methyl-1H-indazol-4-yl)-5-methyl-3-(1-methyl-1H-indazol-5-yl)-1H-pyrazol-1-yl]-2-azaspiro[3.3]heptan-2-yl}prop-2-en-1-one]
Grade 4-5 TRAEs ([1]; 39 patients, all doses): no Grade 4-5 TRAEs
patients with Grade 3 TRAEs ([1]; 39 patients, all doses): 4 pts
tolerability ([1]; 39 patients, 200 mg QD, 400 mg QD, 200 mg BID or 300 mg BID): generally well tolerated
ALT increased (adverse event), All grades ([1]; JDQ443 200 mg BID (n = 11)): 0 n
ALT increased (adverse event), Grade ≥3 ([1]; JDQ443 200 mg BID (n = 11)): 0 n
AST increased (adverse event), All grades ([1]; JDQ443 200 mg BID (n = 11)): 0 n
AST increased (adverse event), Grade ≥3 ([1]; JDQ443 200 mg BID (n = 11)): 0 n
Alopecia (adverse event), All grades ([1]; JDQ443 200 mg BID (n = 11)): 0 n
Alopecia (adverse event), Grade ≥3 ([1]; JDQ443 200 mg BID (n = 11)): 0 n
Arthralgia (adverse event), Grade ≥3 ([1]; JDQ443 200 mg BID (n = 11)): 0 n
Decreased appetite (adverse event), Grade ≥3 ([1]; JDQ443 200 mg BID (n = 11)): 0 n
Diarrhea (adverse event), Grade ≥3 ([1]; JDQ443 200 mg BID (n = 11)): 0 n
Dizziness (adverse event), Grade ≥3 ([1]; JDQ443 200 mg BID (n = 11)): 0 n
Dry mouth (adverse event), All grades ([1]; JDQ443 200 mg BID (n = 11)): 0 n
Dry mouth (adverse event), Grade ≥3 ([1]; JDQ443 200 mg BID (n = 11)): 0 n
Dry skin (adverse event), All grades ([1]; JDQ443 200 mg BID (n = 11)): 0 n
Dry skin (adverse event), Grade ≥3 ([1]; JDQ443 200 mg BID (n = 11)): 0 n
ECG QT prolonged (adverse event), All grades ([1]; JDQ443 200 mg BID (n = 11)): 0 n
ECG QT prolonged (adverse event), Grade ≥3 ([1]; JDQ443 200 mg BID (n = 11)): 0 n
Edema (adverse event), Grade ≥3 ([1]; JDQ443 200 mg BID (n = 11)): 0 n
Fatigue (adverse event), Grade ≥3 ([1]; JDQ443 200 mg BID (n = 11)): 0 n
Headache (adverse event), All grades ([1]; JDQ443 200 mg BID (n = 11)): 0 n
Headache (adverse event), Grade ≥3 ([1]; JDQ443 200 mg BID (n = 11)): 0 n
Lipase increased (adverse event), Grade ≥3 ([1]; JDQ443 200 mg BID (n = 11)): 0 n
Musculoskeletal stiffness (adverse event), All grades ([1]; JDQ443 200 mg BID (n = 11)): 0 n
Musculoskeletal stiffness (adverse event), Grade ≥3 ([1]; JDQ443 200 mg BID (n = 11)): 0 n
Nausea (adverse event), Grade ≥3 ([1]; JDQ443 200 mg BID (n = 11)): 0 n
Neuropathy peripheral (adverse event), All grades ([1]; JDQ443 200 mg BID (n = 11)): 0 n
Neuropathy peripheral (adverse event), Grade ≥3 ([1]; JDQ443 200 mg BID (n = 11)): 0 n
Neutropenia (adverse event), All grades ([1]; JDQ443 200 mg BID (n = 11)): 0 n
Neutropenia (adverse event), Grade ≥3 ([1]; JDQ443 200 mg BID (n = 11)): 0 n
Number of patients with at least one event, Grade ≥3 ([1]; JDQ443 200 mg BID (n = 11)): 0 n
Photosensitivity reaction (adverse event), All grades ([1]; JDQ443 200 mg BID (n = 11)): 0 n
Photosensitivity reaction (adverse event), Grade ≥3 ([1]; JDQ443 200 mg BID (n = 11)): 0 n
Pruritus (adverse event), Grade ≥3 ([1]; JDQ443 200 mg BID (n = 11)): 0 n
Rash (maculopapular) (adverse event), Grade ≥3 ([1]; JDQ443 200 mg BID (n = 11)): 0 n
Rash (pustular) (adverse event), All grades ([1]; JDQ443 200 mg BID (n = 11)): 0 n
Rash (pustular) (adverse event), Grade ≥3 ([1]; JDQ443 200 mg BID (n = 11)): 0 n
Vomiting (adverse event), Grade ≥3 ([1]; JDQ443 200 mg BID (n = 11)): 0 n
ALT increased (adverse event), Grade ≥3 ([1]; JDQ443 all patients (N = 39)): 0 n
AST increased (adverse event), Grade ≥3 ([1]; JDQ443 all patients (N = 39)): 0 n
Alopecia (adverse event), Grade ≥3 ([1]; JDQ443 all patients (N = 39)): 0 n
Arthralgia (adverse event), Grade ≥3 ([1]; JDQ443 all patients (N = 39)): 0 n
Decreased appetite (adverse event), Grade ≥3 ([1]; JDQ443 all patients (N = 39)): 0 n
Diarrhea (adverse event), All grades ([1]; JDQ443 all patients (N = 39)): 5 n
Diarrhea (adverse event), Grade ≥3 ([1]; JDQ443 all patients (N = 39)): 0 n
Dizziness (adverse event), Grade ≥3 ([1]; JDQ443 all patients (N = 39)): 0 n
Dry mouth (adverse event), Grade ≥3 ([1]; JDQ443 all patients (N = 39)): 0 n
Dry skin (adverse event), Grade ≥3 ([1]; JDQ443 all patients (N = 39)): 0 n
ECG QT prolonged (adverse event), Grade ≥3 ([1]; JDQ443 all patients (N = 39)): 0 n
Edema (adverse event), Grade ≥3 ([1]; JDQ443 all patients (N = 39)): 0 n
Headache (adverse event), Grade ≥3 ([1]; JDQ443 all patients (N = 39)): 0 n
Lipase increased (adverse event), Grade ≥3 ([1]; JDQ443 all patients (N = 39)): 0 n
Musculoskeletal stiffness (adverse event), Grade ≥3 ([1]; JDQ443 all patients (N = 39)): 0 n
Nausea (adverse event), Grade ≥3 ([1]; JDQ443 all patients (N = 39)): 0 n
Neuropathy peripheral (adverse event), Grade ≥3 ([1]; JDQ443 all patients (N = 39)): 0 n
Number of patients with at least one event, Grade ≥3 ([1]; JDQ443 all patients (N = 39)): 5 n
Pruritus (adverse event), Grade ≥3 ([1]; JDQ443 all patients (N = 39)): 0 n
Rash (maculopapular) (adverse event), Grade ≥3 ([1]; JDQ443 all patients (N = 39)): 0 n
Rash (pustular) (adverse event), Grade ≥3 ([1]; JDQ443 all patients (N = 39)): 0 n
Vomiting (adverse event), All grades ([1]; JDQ443 all patients (N = 39)): 5 n
Vomiting (adverse event), Grade ≥3 ([1]; JDQ443 all patients (N = 39)): 0 n
dose limiting toxicity (DLT) ([1]; patient treated at 300 mg BID): one DLT (Grade 3 fatigue)
treatment-related serious AE ([1]; patient treated at 300 mg BID): one treatment-related serious AE (Grade 3 photosensitivity reaction)
anti-tumor response [2]: no to moderate anti-tumor response in half of the models and a good anti-tumor response in the other half of the models
inhibition of cellular viability ([3]; KRASG12C R68S double mutant, 3-day proliferation assay): not inhibited
GI50 ([3]; Mus musculus, BaF3, KRAS G12C R68S, 72 hours, CellTiter-Glo, read-out: GI50 +/− standard deviation (STDEV)): > 10 µM
